From patent US20020019378A1, “COMPOUNDS” (priority 1997, published 2002)
Read-outs that look alike come from different tables or passages of the source. One block for each compound: values may come before it.

Legend:
[1] = biological target: T1, Human Glucocorticoid Receptor (Homo sapiens, UniProt P04150); test: Functional in vitro glucocorticoid activity assay: Hela cells stably transfected with sPAP reporter gene under MMTV LTR promoter; assay type: cell-based; conditions: 72 hours incubation, values given as 'less than (about)', read-out: EC50 (sPAP transcription, glucocorticoid activity)
T1 construct: endogenous in cells; host or cells: HeLa cells stably transfected with an MMTV-LTR sPAP reporter
T1 sequence (P04150 1-777): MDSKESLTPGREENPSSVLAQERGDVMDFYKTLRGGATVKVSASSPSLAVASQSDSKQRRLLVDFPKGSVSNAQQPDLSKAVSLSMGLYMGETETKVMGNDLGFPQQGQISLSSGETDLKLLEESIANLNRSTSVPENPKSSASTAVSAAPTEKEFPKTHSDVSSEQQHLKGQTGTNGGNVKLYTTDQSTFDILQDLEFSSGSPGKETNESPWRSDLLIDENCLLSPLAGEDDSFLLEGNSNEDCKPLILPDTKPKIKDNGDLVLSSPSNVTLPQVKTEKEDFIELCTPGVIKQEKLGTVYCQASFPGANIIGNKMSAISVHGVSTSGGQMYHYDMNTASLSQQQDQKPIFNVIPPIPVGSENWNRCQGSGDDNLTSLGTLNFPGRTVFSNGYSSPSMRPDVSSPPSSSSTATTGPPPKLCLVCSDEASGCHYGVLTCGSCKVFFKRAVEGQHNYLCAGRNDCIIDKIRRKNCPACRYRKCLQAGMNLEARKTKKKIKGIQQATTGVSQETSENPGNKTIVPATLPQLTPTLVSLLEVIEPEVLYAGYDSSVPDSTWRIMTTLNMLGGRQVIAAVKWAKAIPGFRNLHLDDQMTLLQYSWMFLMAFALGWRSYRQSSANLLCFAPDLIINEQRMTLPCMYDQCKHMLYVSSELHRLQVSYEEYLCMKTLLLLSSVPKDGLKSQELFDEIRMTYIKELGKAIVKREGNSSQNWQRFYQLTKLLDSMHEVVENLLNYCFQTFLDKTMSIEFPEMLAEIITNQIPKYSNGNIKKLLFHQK
Excerpt: The functional assay used was a modification of the method described by T. S Berger et al, of J. of Steroid Biochem. Molec. Biol. 1992, 41 (3-8), 733-738, “Interaction of Glucocorticoid analogues with the Human Glucocorticoid Receptor”. Thus, Hela cells were stably transfected with a detectable reporter gene (secreted placental alkaline phosphatase, sPAP) under the control of a glucocorticoid response promoter (the LTR of the mouse mammary tumour virus, MMTV). Various concentrations of standard (dexamethasone) or compounds of the invention were incubated with transfected Hela cells for 72 hours. At the end of the incubation, substrate ([…]) for sPAP was added and the product measured by a spectrophotometric method. Increased absorbance reflected increased sPAP transcription and concentration-response lines were constructed such that EC50-values could be estimated.

[2] = tested on: lactonase enzyme purified from human plasma; assay type: biochemical; conditions: for Restoration of lactonase activity in the presence of EDTA and EGTA: salt added at 100 mM
Method: The enzyme activity purified according to A. above was tested with classical inhibitors in order to establish to which enzyme family it belongs. Also, it was investigated whether a divalent cation was required as a co-factor, as disclosed in W. N. Fishbein et al, Journal of Biological Chemistry 1966, 241(21), 4835-4841.

- EC50 [1]: < 250 nM
SMILES: CCC(=O)O[C@]1(C(=O)SCC2CCOC2=O)[C@H](C)C[C@H]2[C@@H]3C[C@H](F)C4=CC(=O)C=C[C@]4(C)[C@@]3(F)[C@@H](O)C[C@@]21C (single isomer, unassigned) [Example 2, 6α,9α-Difluoro-11β-hydroxy-16α-methyl-3-oxo-17α-propionyloxy-androsta-1,4-diene-17β-carbothioic acid S-(2-oxo-tetrahydro-furan-3-ylmethyl) ester]

SMILES: [Ca+2].[Cl-].[Cl-] [CaCl2]
- Restoration of lactonase activity in the presence of EDTA and EGTA [2]: fully restored

SMILES: O=C(O)CN(CCN(CC(=O)O)CC(=O)O)CC(=O)O [EDTA]
- Inhibition of lactonase activity [2]: totally inhibited

SMILES: O=C(O)CN(CCOCCOCCN(CC(=O)O)CC(=O)O)CC(=O)O [EGTA]
- Inhibition of lactonase activity ([2]; inhibitor at 1 mM): totally inhibited

- EC50 [1]: < 250 nM
SMILES: C[C@@H]1C[C@H]2[C@@H]3C[C@H](F)C4=CC(=O)C=C[C@]4(C)[C@@]3(F)[C@@H](O)C[C@]2(C)[C@]12OC(=O)SC2=O [Example 1, 6α,9α-Difluoro-11β-hydroxy-16α-methyl-17-spiro[androsta-1,4-diene-17,5′-[1,3]oxathiolane]-2′,3,4′-trione]

- EC50 [1]: < 250 nM
SMILES: C[C@]12C=CC(=O)C=C1CC[C@H]1[C@@H]3C[C@H]4CC(=O)O[C@@]4(C(=O)CO)[C@@]3(C)C[C@H](O)[C@@]12F [Example 5, 9α-Fluoro-11β,17α,21-trihydroxy-3,20-dioxo-pregna-1,4-diene-16α-acetic acid γ-lactone]

SMILES: [Cl-].[Cl-].[Mg+2] [MgCl2]
- Restoration of lactonase activity in the presence of EDTA and EGTA [2]: not restored

SMILES: CNC(=O)Oc1ccc2c(c1)[C@]1(C)CCN(C)[C@@H]1N2C [eserine]
- Inhibition of lactonase activity ([2]; inhibitor at 50 mM): not inhibited

SMILES: O=C(O)c1cc[c]([Hg][Cl])cc1 [p-chloromercuribenzoate (PCMB), p-chloromercuribenzoate]
- Inhibition of lactonase activity ([2]; inhibitor at 1 mM): slightly inhibited

SMILES: O=S(=O)(F)Cc1ccccc1 [phenylmethylsulphonyl fluoride (PMSF), phenylmethylsulphonyl fluoride]
- Inhibition of lactonase activity ([2]; inhibitor at 10 mM): not inhibited

SMILES: O=S(=O)([O-])[O-].[Zn+2] [zinc sulphate]
- Inhibition of lactonase activity ([2]; inhibitor at 1 mM): totally inhibited
